Like-named read-outs stand apart in the source and are kept apart here.
Assays:
[1] = molecular target: T1, hSERT (Homo sapiens, UniProt P31645); assay: hSERT binding assay (Assay 1)
T1 construct: expressed in transfected cells; host or cells: HEK-293 derived cell line, stably transfected; membrane preparation
Procedure, shortened: (§1)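 Membranes from HEK-293 cells stably expressing human NET or SERT competed test compound against ^3H-nisoxetine (hNET) or ^3H-citalopram (hSERT). Buffer was 50 mM Tris-HCl pH 7.4, 120 mM NaCl, 5 mM KCl, 0.1% BSA and 400 μM ascorbic acid.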

[2] = molecular target: T2, hNET (Homo sapiens, UniProt P23975); assay: hNET binding assay (Assay 1); settings: read-out: NET pKi (converted)
T2 construct: expressed in transfected cells; host or cells: HEK-293 derived cell line, stably transfected; membrane preparation
T2 sequence (P23975 whole entry): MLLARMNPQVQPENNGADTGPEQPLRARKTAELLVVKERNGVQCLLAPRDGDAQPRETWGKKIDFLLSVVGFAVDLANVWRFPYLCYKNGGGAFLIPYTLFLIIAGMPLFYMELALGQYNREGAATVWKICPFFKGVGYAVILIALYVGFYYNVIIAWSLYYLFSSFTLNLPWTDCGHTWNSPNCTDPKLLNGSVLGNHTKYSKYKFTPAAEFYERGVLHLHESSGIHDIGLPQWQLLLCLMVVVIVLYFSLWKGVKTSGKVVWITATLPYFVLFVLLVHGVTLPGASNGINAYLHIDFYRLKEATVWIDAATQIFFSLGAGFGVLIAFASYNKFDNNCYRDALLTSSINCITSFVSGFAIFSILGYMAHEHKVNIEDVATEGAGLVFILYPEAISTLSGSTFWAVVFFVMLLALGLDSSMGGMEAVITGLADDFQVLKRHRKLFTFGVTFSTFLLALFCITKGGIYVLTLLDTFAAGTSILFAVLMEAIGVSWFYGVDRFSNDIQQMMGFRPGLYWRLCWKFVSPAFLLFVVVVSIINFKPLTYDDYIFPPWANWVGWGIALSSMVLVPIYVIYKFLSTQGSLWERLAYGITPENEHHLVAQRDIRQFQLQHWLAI
Procedure, shortened: as §1

[3] = ratio of SERT Ki to NET Ki (binding)
[4] = ratio of binding Ki at SERT to Ki at NET, the tables list only compounds with a ratio in the range 0.1-100
[5] = hNET binding, the tables list only compounds with NET pKi≧8
[6] = ratio of binding Ki at hSERT to Ki at hNET, rounded off to the nearest tenth
[7] = membranes of HEK-293 cells expressing hNET, 1.0 nM 3H-nisoxetine
[8] = ratio of SERT Ki to NET Ki from binding assays

T1 sequence (P31645 whole entry): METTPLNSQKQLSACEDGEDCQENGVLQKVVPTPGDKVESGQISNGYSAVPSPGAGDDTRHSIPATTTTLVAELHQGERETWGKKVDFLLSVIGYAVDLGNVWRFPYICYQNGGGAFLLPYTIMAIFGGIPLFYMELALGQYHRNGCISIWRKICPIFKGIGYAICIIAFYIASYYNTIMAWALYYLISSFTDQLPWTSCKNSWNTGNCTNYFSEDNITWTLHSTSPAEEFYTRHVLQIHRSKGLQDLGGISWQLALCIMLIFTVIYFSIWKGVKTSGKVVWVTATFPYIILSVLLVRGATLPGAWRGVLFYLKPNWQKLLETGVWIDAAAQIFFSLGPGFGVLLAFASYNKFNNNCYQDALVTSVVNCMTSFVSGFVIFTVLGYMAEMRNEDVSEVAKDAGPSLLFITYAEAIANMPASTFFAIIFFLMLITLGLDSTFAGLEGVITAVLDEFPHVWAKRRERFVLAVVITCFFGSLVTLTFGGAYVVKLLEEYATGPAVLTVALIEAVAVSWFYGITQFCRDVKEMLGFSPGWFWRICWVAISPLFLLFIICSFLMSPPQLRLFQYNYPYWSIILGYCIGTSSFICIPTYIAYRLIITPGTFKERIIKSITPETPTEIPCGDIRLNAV

Row | SMILES | SERT Ki/NET Ki [1, 3] | Ki ([2]; hNET binding) | SERT Ki/NET Ki [1, 6] | Ki [2, 7] | further results
1 | Fc1cc(F)cc(C(Oc2c(F)ccc(F)c2F)C2CCNC2)c1 (stereo not shown) [41-2] | 1 | 2.51 nM | – | – | –
2 | Fc1cc(F)c(Cl)c(OC(c2ccccc2)C2CCNC2)c1F (stereo not shown) [47-7] | – | – | – | – | SERT Ki/NET Ki [1, 4]: 0.4; Ki [2, 5]: 0.501 nM
3 | Cc1ccc(C(Oc2cc(Cl)cc(Cl)c2)C2CCNC2)cc1 (stereo not shown) [35-12] | 0.1 | 7.94 nM | – | – | –
4 | COc1ccccc1OC(c1ccccc1OC(F)(F)F)C1CCNC1 (stereo not shown) [Compound 20-23] | – | – | 1.6 | 5.01 nM | –
5 | Fc1cc(F)cc(C(Oc2ccc(F)c(F)c2F)C2CCNC2)c1 (stereo not shown) [37-1] | 4 | 5.01 nM | – | – | –
6 | Cc1ccc(Cl)c(OC(c2ccc(C#N)cc2)C2CCNC2)c1Cl (stereo not shown) [41-15] | 0.6 | 1 nM | – | – | –
7 | Fc1cc(F)c(F)c(O[C@H](c2ccccc2)[C@@H]2CCNC2)c1 [38-1] | 0.2 | 5.01 nM | – | – | –
8 | COc1ccc(F)cc1OC(c1cc(F)cc(F)c1)C1CCNC1 (stereo not shown) [30-6] | – | – | – | – | SERT Ki/NET Ki [1, 8]: 0.4; Ki ([2]; hNET binding assay): 5.01 nM
9 | Cc1c(Cl)cccc1O[C@H](c1ccccc1)[C@@H]1CCNC1 [Compound 25-22] | – | – | 0.2 | 0.631 nM | –
10 | Cc1ccc(OC(c2ccccc2)C2CCNC2)cc1F (stereo not shown) [33-2] | – | – | – | – | SERT Ki/NET Ki [1, 8]: 0.1; Ki ([2]; hNET binding assay): 5.01 nM
11 | Fc1cc(F)cc(C(Oc2c(F)ccc(F)c2Cl)C2CCNC2)c1 (stereo not shown) [41-30] | 32 | 0.2 nM | – | – | –
12 | Cc1ccc(F)c(OC(c2cc(F)cc(F)c2)C2CCNC2)c1F (stereo not shown) [41-7] | 1.3 | 1 nM | – | – | –
13 | Cc1ccc(Cl)c(OC(c2cccc(C#N)c2)C2CCNC2)c1Cl (stereo not shown) [41-14] | 7.9 | 0.631 nM | – | – | –
14 | CCOc1ccccc1OC(c1ccccc1)C1CCNC1 (stereo not shown) [Ex. 5, 3-[(2-Ethoxyphenoxy)phenylmethyl]pyrrolidine] | – | – | 32 | 1.26 nM | –
15 | COc1ccc(Cl)cc1OC(c1ccccc1)C1CCNC1 (stereo not shown) [29-22] | – | – | – | – | SERT Ki/NET Ki [1, 8]: 2.5; Ki ([2]; hNET binding assay): 2.51 nM
16 | COc1ccccc1O[C@@H](c1cc(C)cc(F)c1)[C@@H]1CCNC1 (racemic) [Compound 20-37] | – | – | 13 | 6.31 nM | –
17 | CC(=O)c1ccccc1O[C@H](c1ccccc1)[C@@H]1CCNC1 (stereo in doubt) [Ex. 9-3, 1-[2-((R)-phenyl-(S)-pyrrolidin-3-yl-methoxy)phenyl]ethanone] | – | – | 50 | 3.16 nM | –
18 | N#Cc1cccc([C@H](Oc2c(F)ccc(F)c2Cl)[C@H]2CCNC2)c1 [41-32] | 40 | 0.398 nM | – | – | –
19 | COc1cc(F)ccc1OC(c1cc(F)cc(F)c1)C1CCNC1 (stereo not shown) [28-17] | – | – | – | – | SERT Ki/NET Ki [1, 8]: 25; Ki ([2]; hNET binding assay): 0.398 nM
20 | Fc1cc(F)c(Cl)c(OC(c2ccccc2)C2CCNC2)c1F (stereo not shown) [47-6] | – | – | – | – | SERT Ki/NET Ki [1, 4]: 6.3; Ki [2, 5]: 0.398 nM

Row | SMILES | SERT Ki/NET Ki [1, 3] | Ki ([2]; hNET binding) | SERT Ki/NET Ki [1, 6] | Ki [2, 7] | further results
21 | Cc1cccc(Cl)c1OC(c1ccccc1)C1CCNC1 (stereo not shown) [31-11] | – | – | – | – | SERT Ki/NET Ki [1, 8]: 1.3; Ki ([2]; hNET binding assay): 2 nM
22 | Fc1c(Oc2ccccc2)cccc1OC(c1ccccc1)C1CCNC1 (stereo not shown) [Compound 25-8] | – | – | 1.3 | 2.51 nM | –
23 | Cc1cc(F)cc(C(Oc2cc(Cl)cc(Cl)c2)C2CCNC2)c1 (stereo not shown) [35-19] | 0.4 | 6.31 nM | – | – | –
24 | COc1ccc(F)c(F)c1O[C@H](c1ccccc1)[C@@H]1CCNC1 [40-8] | 1 | 1 nM | – | – | –
25 | N#Cc1cccc([C@H](Oc2ccc(Cl)cc2F)[C@H]2CCNC2)c1 [28-3] | – | – | – | – | SERT Ki/NET Ki [1, 8]: 0.5; Ki ([2]; hNET binding assay): 6.31 nM
26 | Fc1cc(F)cc(C(Oc2c(F)ccc(Cl)c2F)C2CCNC2)c1 (stereo not shown) [41-6] | 1 | 0.501 nM | – | – | –
27 | Fc1ccc(F)c(O[C@H](c2ccccc2)[C@@H]2CCNC2)c1 [29-3] | – | – | – | – | SERT Ki/NET Ki [1, 8]: 0.5; Ki ([2]; hNET binding assay): 7.94 nM
28 | Fc1cc(F)cc([C@@H](Oc2cc(Cl)cc(Cl)c2)[C@@H]2CCNC2)c1 [35-17] | 0.2 | 1.58 nM | – | – | –
29 | CC(C)c1ccccc1OC(c1cccc(F)c1)C1CCNC1 (stereo not shown) [Compound 20-13] | – | – | 10 | 5.01 nM | –
30 | FC(F)(F)c1ccccc1OC(c1ccccc1)C1CCNC1 (stereo not shown) [Compound 19-13] | – | – | 7.9 | 2.51 nM | –
31 | COc1ccccc1OC(c1ccccc1Cl)C1CCNC1 (stereo not shown) [Compound 20-16] | – | – | 4 | 1.26 nM | –
32 | Clc1cccc(Oc2cccc(OC(c3ccccc3)C3CCNC3)c2)c1 (stereo not shown) [Compound 21-14] | – | – | 0.8 | 5.01 nM | –
33 | c1ccc(COc2ccc(OC(c3ccccc3)C3CCNC3)cc2)cc1 (stereo not shown) [Compound 23-15] | – | – | 2 | 7.94 nM | –
34 | CC(C)c1ccccc1OC(c1cccc(Cl)c1)C1CCNC1 (stereo not shown) [Compound 20-12] | – | – | 7.9 | 5.01 nM | –
35 | COc1ccccc1OC(c1ccc(Cl)cc1)C1CCNC1 (stereo not shown) [Compound 20-21] | – | – | 4 | 2 nM | –
36 | Fc1cc(F)c(OC(c2ccccc2)C2CCNC2)cc1F (stereo not shown) [42-1] | 1.6 | 7.94 nM | – | – | –
37 | Fc1cc(F)cc(C(Oc2cc(Cl)ccc2F)C2CCNC2)c1 (stereo not shown) [30-1] | – | – | – | – | SERT Ki/NET Ki [1, 8]: 3.2; Ki ([2]; hNET binding assay): 1.26 nM
38 | Fc1cccc(OC(c2ccccc2)C2CCNC2)c1 (stereo not shown) [Compound 21-1] | – | – | 1 | 3.98 nM | –
39 | N#Cc1cccc([C@@H](Oc2c(F)ccc(F)c2Cl)[C@@H]2CCNC2)c1 [41-33] | 0.4 | 0.794 nM | – | – | –
40 | N#Cc1cccc([C@H](Oc2c(F)ccc(F)c2Cl)[C@@H]2CCNC2)c1 [41-34] | 0.8 | 7.94 nM | – | – | –

Row | SMILES | SERT Ki/NET Ki [1, 3] | Ki ([2]; hNET binding) | SERT Ki/NET Ki [1, 6] | Ki [2, 7] | further results
41 | Fc1cc(F)cc([C@H](Oc2c(F)cc(F)cc2F)[C@H]2CCNC2)c1 [45-1] | – | – | – | – | SERT Ki/NET Ki [1, 4]: 7.9; Ki [2, 5]: 3.98 nM
42 | Fc1cc(F)cc(C(Oc2cc(Cl)ccc2F)C2CCNC2)c1 (stereo not shown) [30-2] | – | – | – | – | SERT Ki/NET Ki [1, 8]: 25; Ki ([2]; hNET binding assay): 0.794 nM
43 | Fc1ccc(Cl)c(F)c1O[C@@H](c1ccccc1)[C@H]1CCNC1 [40-16] | 10 | 0.158 nM | – | – | –
44 | Fc1cc(F)cc([C@H](Oc2c(F)ccc(F)c2F)[C@H]2CCNC2)c1 [41-1] | 100 | 0.251 nM | – | – | –
45 | Cc1c(Cl)cccc1OC(c1ccccc1)C1CCNC1 (stereo not shown) [Compound 25-21] | – | – | 0.6 | 1.26 nM | –
46 | Cc1ccc(Cl)c(OC(c2cc(F)cc(F)c2)C2CCNC2)c1Cl (racemic) [41-26] | 1.3 | 0.501 nM | – | – | –
47 | Fc1cc(Cl)cc(C(Oc2cc(Cl)cc(Cl)c2)C2CCNC2)c1 (stereo not shown) [35-18] | 0.5 | 5.01 nM | – | – | –
48 | Cc1cccc(OC(c2ccccc2)C2CCNC2)c1 (stereo not shown) [Compound 21-7] | – | – | 0.5 | 3.98 nM | –
49 | Cc1ccc(Cl)c(OC(c2cc(F)cc(F)c2)C2CCNC2)c1F (stereo not shown) [41-8] | 7.9 | 0.398 nM | – | – | –
50 | Fc1cc(F)c(F)c(OC(c2ccccc2)C2CCNC2)c1 (stereo not shown) [38-2] | 10 | 1.58 nM | – | – | –
51 | Cc1ccc(OC(c2ccccc2)C2CCNC2)c(Cl)c1 (stereo not shown) [27-10] | – | – | – | – | SERT Ki/NET Ki [1, 8]: 0.8; Ki ([2]; hNET binding assay): 0.631 nM
52 | COc1ccccc1OC(c1cccc(F)c1)C1CCNC1 (stereo not shown) [Compound 20-15] | – | – | 4 | 5.01 nM | –
53 | CCC(=O)c1ccccc1OC(c1ccccc1)C1CCNC1 (stereo not shown) [Compound 19-27] | – | – | 100 | 2 nM | –
54 | Cc1cccc(O[C@@H](c2ccccc2)[C@H]2CCNC2)c1 [Compound 21-8] | – | – | 2.5 | 6.31 nM | –
55 | NC(=O)c1cccc(C(Oc2c(F)cc(F)cc2F)C2CCNC2)c1 (stereo not shown) [45-5] | – | – | – | – | SERT Ki/NET Ki [1, 4]: 3.2; Ki [2, 5]: 7.94 nM
56 | COc1ccc(Cl)cc1OC(c1cccc(Cl)c1)C1CCNC1 (stereo not shown) [30-9] | – | – | – | – | SERT Ki/NET Ki [1, 8]: 0.6; Ki ([2]; hNET binding assay): 7.94 nM
57 | Fc1cc(F)cc(C(Oc2cc(Cl)ccc2Cl)C2CCNC2)c1 (stereo not shown) [30-3] | – | – | – | – | SERT Ki/NET Ki [1, 8]: 0.3; Ki ([2]; hNET binding assay): 3.98 nM
58 | COC(=O)c1cc(Cl)ccc1OC(c1ccccc1)C1CCNC1 (stereo not shown) [27-34] | – | – | – | – | SERT Ki/NET Ki [1, 8]: 4; Ki ([2]; hNET binding assay): 2.51 nM
59 | Cc1cccc(Cl)c1O[C@@H](c1ccccc1)[C@H]1CCNC1 [31-12] | – | – | – | – | SERT Ki/NET Ki [1, 8]: 1.6; Ki ([2]; hNET binding assay): 1 nM

Source: patent US7888386B2, “3-(phenoxyphenylmethyl)pyrrolidine compounds” (Theravance, Inc., priority 2008, dated 2011)
